What was measured:
[1] = tested on: CYP1A1, CYP3A4, MDR1 mRNA in primary human hepatocytes; assay: qRT-PCR of CYP1A1, CYP3A4, MDR1 mRNA in primary human hepatocytes (four donors); details: for CYP1A1 mRNA fold to C / CYP3A4 mRNA fold to C / MDR-1 mRNA fold to C: primary human hepatocytes donor Hep200538, fold to UT control; for CYP1A1 mRNA fold to C / CYP3A4 mRNA fold to C / MDR-1 mRNA fold to C / CYP1A1 (1A1) mRNA, fold to C / CYP3A4 (3A4) mRNA, fold to C / MDR1 mRNA fold to C / MDR-1 mRNA, fold to C: normalised to GAPDH; for CYP1A1 (1A1) mRNA, fold to C / CYP3A4 (3A4) mRNA, fold to C / MDR1 mRNA fold to C / MDR-1 mRNA, fold to C: primary human hepatocytes, fold vs untreated (UT)
Protocol: Cells or primary human hepatocytes from four different donors (HEP200529, HEP220932, HEP200533, and HEP200538) were incubated for 24 h with test compounds; the vehicle was DMSO (0.1% v/v). Total RNA was isolated using TRI Reagent® (Molecular Research Center, Ohio, USA). cDNA was synthesized from 1,000 ng of total RNA using M‐MuLV Reverse Transcriptase (New England Biolabs, Ipswich, Massachusetts, USA) at 42°C for 60 min in the presence of random hexamers (New England Biolabs). Quantitative reverse transcriptase–polymerase chain reaction (qRT–PCR) was performed using LightCycler® 480 Probes Master on a LightCycler® 480 II apparatus (Roche Diagnostic Corporation).
The following protocol was used: An activation step at 95°C for 10 min was followed by 45 cycles of PCR (denaturation at 95°C for 10 s; annealing with elongation at 60°C for 30 s). The measurements were performed in triplicate. Gene expression was normalized per GAPDH as a housekeeping gene. […] Data are expressed as fold induction ± SD over the vehicle‐treated cells. The bar graph depicts one representative experiment of a series of experiments performed in three consecutive passages of cells. Differences were tested using one‐way ANOVA with Dunnett's post hoc test, and P < 0.05 was considered significant.

PPARγ = molecular target: T1, PPARγ (Homo sapiens, UniProt P37231); assay: PPARγ reporter assay in PAZ-PPARg cells; assay type: cell-based
T1 construct: endogenous in cells; host or cells: PAZ-PPARg
T1 sequence (P37231 whole entry): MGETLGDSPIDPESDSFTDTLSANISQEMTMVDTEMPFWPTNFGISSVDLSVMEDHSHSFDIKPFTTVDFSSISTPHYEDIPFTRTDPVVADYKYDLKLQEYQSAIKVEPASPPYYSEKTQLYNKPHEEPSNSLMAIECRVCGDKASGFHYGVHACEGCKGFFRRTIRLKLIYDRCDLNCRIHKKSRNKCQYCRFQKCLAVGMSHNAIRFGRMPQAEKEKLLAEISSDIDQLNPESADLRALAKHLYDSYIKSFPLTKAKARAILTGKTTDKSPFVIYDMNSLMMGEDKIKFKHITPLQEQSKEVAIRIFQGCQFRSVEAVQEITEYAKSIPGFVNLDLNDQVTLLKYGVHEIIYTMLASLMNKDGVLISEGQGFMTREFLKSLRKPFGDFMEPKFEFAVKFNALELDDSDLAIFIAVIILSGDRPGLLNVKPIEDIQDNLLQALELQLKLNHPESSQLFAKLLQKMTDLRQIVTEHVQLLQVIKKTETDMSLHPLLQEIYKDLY
Protocol: volume of 20 µl in 384-well black plates, with concentrations of tested compounds in the range from 1 […]
dark, and then fluorescent signals were measured at 495 nm and 520 nm, with the excitation filter 340 nm, on Infinite F200 microplate reader (Tecan Group Ltd, Switzerland). Finally, the TR-FRET ratio was calculated by dividing the emission signal of 520 nm by that at 495 nm. All experiments were done in tetraplicates and as two independent experiments. Final EC50 values were obtained by processing the data with GraphPad Prism 6 using standard curve interpolation (sigmoidal, 4PL, variable slope).
Tr a nscriptional activity of PPARγ was studied in stably transfected reporter cell line PAZ-PPARg 20. Cells were seeded in 96 -well plates, stabilized for 24 h, and then incubated with tested compound. Dimethyl sulfoxide (DMSO; 0.1% v/v) and 15 -deoxy-δ1 2 , 1 4-prostaglandin J2 […]
(Schoeller Instruments, Prague, Czech Republic). The data are expressed as fold induction ± SD of luciferase activity over the control cells. Differences were tested using one-way ANOVA wit h Dunnett’s post hoc test, p < 0.05, was considered significant (*).

468 kinases = assay: DiscoverX scanMAX kinase panel (KINOMEscan); assay type: binding, human; details: for kinase inhibition (in words): panel of 468 kinases
Protocol: Kinase Assays. The kinase inhibition assays were conducted by DiscoverX on a platform assay by Ambit BioSciences as described previously 16,17. FKK6 was screened at a single concentration of 10 μM in duplicate. The scanMAXSM assay panel measures 468 kinases
(https://www.discoverx.com/services/drug-discovery-development-services/kinase-profiling/kinomescan/scanmax). The assays measure a compound’s ability to inhibit binding of a canonical ligand substrate, with 0% activity of control corresponding to full inhibition and 100% activity of control to no inhibition. […]
quantitative measure of compound selectivity based on the number of kinase hits (enzymes inhibited) divided by the total number of distinct kinases tested. Three different activity cut-offs were analyzed – S(35) or % activity of control < 35; S(10) or % activity of control < 10; and S(1) or % activity of control < 1. To illustrate effect or lack of effect, an image of the entire family of kinases tested were grouped by families and S(35). The TREEspot Kinase dendrogram image was generated using TREEspot™ Software Tool and reprinted with permission from KINOME scan®, a division of DiscoveRx […]

[2] = molecular target: T2, Human constitutive androstane receptor (hCAR) (Homo sapiens, UniProt Q14994); assay: hCAR reporter activity in HEK293T cells; assay type: cell-based
T2 construct: expressed in transfected cells; host or cells: HEK293T
T2 sequence (Q14994 whole entry): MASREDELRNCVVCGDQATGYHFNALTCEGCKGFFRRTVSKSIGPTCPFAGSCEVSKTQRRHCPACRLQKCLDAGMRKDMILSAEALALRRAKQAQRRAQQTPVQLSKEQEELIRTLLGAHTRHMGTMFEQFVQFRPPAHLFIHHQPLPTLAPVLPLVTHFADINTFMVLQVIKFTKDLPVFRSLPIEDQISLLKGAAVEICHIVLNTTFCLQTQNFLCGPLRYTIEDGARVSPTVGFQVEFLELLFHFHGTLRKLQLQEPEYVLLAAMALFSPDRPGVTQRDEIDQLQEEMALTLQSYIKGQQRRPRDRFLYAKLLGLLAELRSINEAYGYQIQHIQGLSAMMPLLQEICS
Protocol: Reverse transfection assays were performed in Caco‐2 cells as previously published with the following modifications (Kublbeck et al, 2015). 3.0 × 10^4 cells per well were transfected using pSG5‐PXR plasmid (300 ng/well), β‐Gal expression plasmid (600 ng/well), and CYP3A4‐luciferase reporter (500 ng/well) (Huang et al, 2007). After 24‐h transfection using Lipofectamine® LTX ([…] of plasmid), cells were exposed to FKK5 for 24 h. Cell lysates were prepared for β‐Gal and luciferase assays as previously published (Huang et al, 2007). The data are expressed as mean ± SD RLU (relative light units from luciferase assay) normalized to β‐Gal activity in the same well. Differences were tested using 2‐way ANOVA with Tukey's multiple comparison test, and P < 0.05 was considered significant (*). Standard transient transfection assays (PXR, CAR) in HEK293T cells were performed as previously published (Huang et al, 2007).

IL-8 mRNA = assay: TNF-α-induced IL-8 mRNA in human colonic enteroids (Calgary Protocol); assay type: cell-based; details: 10 μM, pair-wise vs DMSO
Protocol: Samples were immediately processed to yield isolated colonic crypts as previously described (Fernando et al, 2017). Isolated colonic crypts were embedded in Matrigel® (Corning) and cultured in Intesticult^tm Organoid Growth Media. Human organoids were pretreated for 6 h with either FKK5, FKK6, FKK9, or vehicle (DMSO), then stimulated with human recombinant TNF‐alpha in the presence of either treatment for an additional 12 h. Organoids were washed in PBS, disrupted in Tri Reagent® (Sigma, Oakville, ON, CAN), and frozen at −80°C. After thawing, chloroform was added, samples were centrifuged for 15 min, and the resulting aqueous phase was then added to equal volumes of 70% ethanol and further processed using the RNeasy mini kit (Qiagen). cDNA was synthesized using the QuantiTect RT kit (Qiagen) according to the manufacturer's protocol. Resulting cDNA was used as a template for quantitative real‐time PCR using Perfecta SYBR Green FastMix with ROX (QuantaBio). PCR and analysis were performed using a StepOne PCR System (Applied Biosystems). Gene expression was calculated relative to β‐actin expression and expressed as fold change of control. The primers used were as follows: Human®‐Actin (NM_001101), Human CYP3A4 (NM_001202855), and Human ABCB1 (NM_000927).

| Compound | CYP1A1 mRNA induction ([1]; four donors) | CYP1A1 mRNA fold to C [1] | CYP3A4 mRNA fold to C [1] | MDR-1 mRNA fold to C [1] | CYP1A1 (1A1) mRNA, fold to C ([1]; donor Hep200529) | CYP3A4 (3A4) mRNA, fold to C ([1]; donor Hep200529) | MDR1 mRNA fold to C ([1]; donor Hep200529) | CYP1A1 (1A1) mRNA, fold to C ([1]; donor Hep200533) | CYP3A4 (3A4) mRNA, fold to C ([1]; donor Hep200533) | MDR-1 mRNA, fold to C ([1]; donor Hep200533) | CYP1A1 (1A1) mRNA, fold to C ([1]; donor Hep220932) | CYP3A4 (3A4) mRNA, fold to C ([1]; donor Hep220932) | MDR-1 mRNA, fold to C ([1]; donor Hep220932) | PPARγ ligand agonist activity (PPARγ) | kinase inhibition (in words) (468 kinases) | CAR activity induction [2] | TNF-α-induced IL-8 mRNA levels (IL-8 mRNA) | also measured |
| --- | --- | --- | --- | --- | --- | --- | --- | --- | --- | --- | --- | --- | --- | --- | --- | --- | --- | --- |
| C#CCC(O)(c1ccncc1)c1cc2ccccc2n1S(=O)(=O)c1ccccc1 (stereo not shown) [FKK6] | did not | 15.94 | 6.17 | 0.95 | 6.44 fold | 2.67 fold | 1.52 fold | 3.26 fold | 2.13 fold | 2.03 fold | 0.76 fold | 0.97 fold | 0.40 fold | did not observe any significant ligand agonist activity | neither of these compounds inhibited the kinases tested | did not induce | did not reach statistical significance | CYP3A4 mRNA induction ([1]; four donors): more than twofold induction in one of four hepatocyte samples; MDR1 mRNA induction ([1]; four donors): MDR1 mRNA induction in one of four hepatocyte samples; Interactions Mapped (TREEspot) (468 kinases; 10 μM): 0; Number of Hits, S(1) (468 kinases; 10 μM, 403 non-mutant kinases): 0; Number of Hits, S(10) (468 kinases; 10 μM, 403 non-mutant kinases): 0; Number of Hits, S(35) (468 kinases; 10 μM, 403 non-mutant kinases): 0 |
| O=C(c1ccncc1)c1cc2ccccc2n1S(=O)(=O)c1ccccc1 [FKK5, (1-(phenylsulfonyl)-1H-indol-2-yl)(pyridin-4-yl)methanone] | did not | 1.13 | 0.84 | 0.52 | 1.12 fold | 0.73 fold | 0.93 fold | 1.51 fold | 1.03 fold | 1.05 fold | 0.39 fold | 0.50 fold | 0.35 fold | did not observe any significant ligand agonist activity | neither of these compounds inhibited the kinases tested | did not induce | significantly lowered | – |

— publication PMC7136958, “Targeting the pregnane X receptor using microbial metabolite mimicry” (EMBO Molecular Medicine, 2020)
